Laboratory results as given in ChEMBL document CHEMBL1150100, “Bruceanols G and H cytotoxic quassinoids from Brucea antidysenterica” (1995).

Key:
Assay type in all cases: functional
Details in all cases: read-out: ED50 (the source's name)
KB = test: Cytotoxicity against human KB cells
COLO 205 = test: Cytotoxicity against human COLO205 cells
SK-MEL-5 = test: Cytotoxicity against human SK-MEL-5 cells

With `COC(=O)[C@@]12OC[C@]34[C@H]([C@@H](O)[C@@H]1O)[C@@]1(C)[C@H](O)C(=O)C[C@@H](C)[C@@H]1C[C@H]3OC(=O)[C@H](OC(=O)/C=C(\C)C(C)(C)OC(C)=O)[C@@H]24` [BRUCEANOL G] the EC50 (KB) was 0.55 µM, the EC50 (COLO 205) was 0.44 µM and the EC50 (SK-MEL-5) was 4.08 µM.
Work on `COC(=O)[C@@]12OC[C@]34[C@H]([C@@H](O)[C@@H]1O)[C@@]1(C)C(=O)[C@@H](O)C[C@@H](C)[C@@H]1C[C@H]3OC(=O)[C@H](OC(=O)/C=C(\C)C(C)C)[C@@H]24` [BRUCEANOL H] yielded an EC50 (SK-MEL-5) of 6.37 µM.
